# Results as given in publication PMC8955020, “Pharmacokinetics of Nafamostat, a Potent Serine Protease Inhibitor, by a Novel LC-MS/MS Analysis” (Molecules, 2022).
# Where two headings read alike, the source gives them in different places.
# Assays:
# [1] = Pharmacokinetics of nafamostat in rats after intravenous injection and oral administration (LC-MS/MS, non-compartmental); format: in vivo; conditions: rat
# Experimental: Therefore, nafamostat dissolved in 5% DMSO was administered by intravenous injection via penile vein at a dose of 2 mg/kg (n = 5). For oral administration, nafamostat was dissolved in two types of vehicles: (1) 10% DMSO, (2) 10% DMSO with 10% Tween 80, and orally administered at a dose of 20 mg/kg (n = 5). […] The animal study was approved by the Ethics Committee for the Treatment of Laboratory Animals at Sungkyunkwan University (SKKUIACUC2021-01-57-1) and conducted in accordance with the standard operating procedures (SOPs). Male Sprague–Dawley rats (7 weeks, 188–204 g; DBL, Eumseong, Korea) were kept in plastic cages with free access to a standard diet (Cargill Agri Purina, Seongnam, Korea) and water. The animals were maintained at a temperature of 23 ± 2 °C with a 12 h light–dark cycle and relative humidity of 50 ± 10%. Nafamostat dissolved in 5% DMSO (1 mg/mL) was administered by intravenous injection via penile vein at a dose of 2 mg/kg (n = 5). Approximately 0.3 mL of the venous blood samples were collected at 5, 10, 15, 30 min, 1, 1.5, 2, 3, 4, 6, 8, and 12 h after drug administration directly from the jugular vein. For oral administration, nafamostat was dissolved in two types of vehicle: (1) 10% DMSO, (2) 10% DMSO with 10% Tween 80. The prepared nafamostat solution in Vehicle 1 or Vehicle 2 was orally administered at a dose of 20 mg/kg (n = 5). Approximately 0.3 mL of the venous blood samples were collected at 15, 30, 45 min, 1, 1.5, 2, 3, 4, 6, 8, and 12 h after drug administration directly from the jugular vein. Plasma samples were obtained by centrifugation of the blood samples at 15,000× g for 5 min. Finally, 150 μL of the plasma samples were mixed with 3 μL of the 5.5 mol/L HCl and stored at −20 °C until analysis. The plasma nafamostat concentration–time data were analyzed by a non-compartmental method using the nonlinear least-squares regression program, Phoenix WinNonlin (Version 6.4, Certara, L.P., Princeton, NJ, USA).
# [2] = Effect of pH on stability of nafamostat in plasma under different storage conditions; format: in vitro ADME, rat; conditions: 160 ng/mL in plasma
# Experimental: Nafamostat in the biological fluid is highly unstable because it is rapidly hydrolyzed by erythrocytes in the blood, as well as by arylesterase in the plasma. Quick plasma preparation is one of the general stabilization strategies for unstable compounds in the biological matrices. Therefore, to prevent the hydrolysis of nafamostat by erythrocytes after acquiring the blood samples, the centrifugation time of the blood samples was shortened from 10 to 5 min. In addition, the stability of nafamostat was examined by modulating the pH of plasma samples to determine the optimal pH to minimize the enzymatic hydrolysis. […] Nafamostat concentrations were also determined under various storage conditions, i.e., (A) immediately, (B) after 24 h left at room temperature, (C) after being subjected to five freeze–thaw cycles, and (D) after 10 days at −20 °C. […] Accordingly, once plasma samples were collected, 3 µL of 5.5 mol/L HCl was added to 150 µL of the collected plasma samples to keep the plasma samples in 0.35% HCl (pH = 1.2).
# [3] = Stability of nafamostat in rat plasma (autosampler, freeze/thaw, short-term, long-term); format: in vitro ADME; conditions: for Percentage over Theoretical Concentration, Long-Term Stability: 2 weeks; for Percentage over Theoretical Concentration, Freeze/Thaw Stability: 5 cycles; for Percentage over Theoretical Concentration, Autosampler Stability / Percentage over Theoretical Concentration, Short-Term Stability: 24 h; for Percentage over Theoretical Concentration, Autosampler Stability: 4 °C; for Percentage over Theoretical Concentration, Short-Term Stability: 20 °C
# Experimental: The stability of the nafamostat in the rat plasma was determined under four different storage conditions. […] The stability of nafamostat and IS was examined under four different conditions using three replicates of low, medium, and high QC samples in the rat plasma. The autosampler stability was determined by analyzing the QC samples left in the autosampler at 4 °C for 24 h. The freeze–thaw stability was determined by analyzing the QC samples subject to five freeze–thaw cycles. The short-term stability was determined by analyzing the QC samples left at room temperature for 24 h. […] All stability data were expressed as the percentage of the mean response of the QC samples for stability tests vs. those of the freshly prepared samples at the same concentrations.
# [4] = set-up: method as in PMID 18392693; conditions: humans; cited from earlier work
# [5] = male, Sprague-Dawley, plasma, iv, 2 mg/kg, IV injection 2 mg/kg in 5% DMSO
# [6] = male, Sprague-Dawley, plasma, po, 20 mg/kg, oral 20 mg/kg, vehicle 1: 10% DMSO
# [7] = male, Sprague-Dawley, plasma, po, 20 mg/kg, oral 20 mg/kg, vehicle 2: 10% DMSO + 10% Tween 80
# [8] = IV injection 2 mg/kg in 5% DMSO
structure (smiles),measurement,setting,value
"N=C(N)c1ccc2cc(OC(=O)c3ccc(N=C(N)N)cc3)ccc2c1 [nafamostat, 6′-amidino-2-naphthyl 4-guanidinobenzoate]",Vd,"[1]; male, Sprague-Dawley, plasma, IV injection 2 mg/kg in 5% DMSO, read-out: Vss",0.99 ± 0.65 L/kg
same,CL/F,"[1]; male, Sprague-Dawley, plasma, oral 20 mg/kg, vehicle 2: 10% DMSO + 10% Tween 80, read-out: CL or CL/F",319 ± 119 L/h/kg
same,AUC(0-inf),[1]; [5],447 ± 35.9 ng·h/mL
same,half-life,[1]; [5],1.39 h
same,Cmax,"[1]; male, Sprague-Dawley, plasma, iv, 2 mg/kg, IV injection 2 mg/kg in 5% DMSO, plasma, read-out: C0 or Cmax",5290 ± 808 ng/mL
same,AUC(0-inf),[1]; [6],42.4 ± 12.5 ng·h/mL
same,Tmax,[1]; [6],0.45 ± 0.21 h
same,bioavailability,[1]; [6],0.95 ± 0.25%
same,half-life,[1]; [6],2.21 ± 1.3 h
same,Cmax,"[1]; male, Sprague-Dawley, plasma, po, 20 mg/kg, oral 20 mg/kg, vehicle 1: 10% DMSO, read-out: C0 or Cmax",27.8 ± 8.17 ng/mL
same,AUC(0-inf),[1]; [7],71.2 ± 29.9 ng·h/mL
same,Tmax,[1]; [7],1 ± 0.53 h
same,bioavailability,[1]; [7],1.59 ± 0.6%
same,half-life,[1]; [7],2.3 ± 1.11 h
same,Cmax,"[1]; male, Sprague-Dawley, plasma, po, 20 mg/kg, oral 20 mg/kg, vehicle 2: 10% DMSO + 10% Tween 80, read-out: C0 or Cmax",33.2 ± 18.8 ng/mL
same,CL or CL/F,[1]; [8],4.495 ± 0.367 L/h/kg
same,Vz or Vz/F,[1]; [8],8.75 ± 3.80 L/kg
same,t1/2,"[1]; IV injection 2 mg/kg in 5% DMSO, plasma, 2 mg/kg",1.34 ± 0.51 h
same,Vz or Vz/F,"[1]; oral 20 mg/kg, vehicle 1: 10% DMSO",1906.08 ± 1841.14 L/kg
same,Vz or Vz/F,"[1]; oral 20 mg/kg, vehicle 2: 10% DMSO + 10% Tween 80",998.85 ± 401.04 L/kg
same,time to reach peak concentration (Cmax),"[1]; oral administration 20 mg/kg, both vehicles",≤ 1.0 h
same,stability (observed vs theoretical concentration),"[2]; 0.1% ammonium hydroxide (pH = 10.5), A: immediately",29.29 ± 1.26%
same,stability (observed vs theoretical concentration),"[2]; 0.1% ammonium hydroxide (pH = 10.5), B: after 24 h at room temperature",0.09 ± 0.01%
same,stability (observed vs theoretical concentration),"[2]; 0.1% ammonium hydroxide (pH = 10.5), C: after 5 freeze-thaw cycles",5.21 ± 0.32%
same,stability (observed vs theoretical concentration),"[2]; 0.1% ammonium hydroxide (pH = 10.5), D: after 10 days at −20 °C",0.13 ± 0.08%
same,stability (observed vs theoretical concentration),"[2]; 0.1% formic acid (pH = 2.8), A: immediately",66.56 ± 3.73%
same,stability (observed vs theoretical concentration),"[2]; 0.1% formic acid (pH = 2.8), B: after 24 h at room temperature",0.16 ± 0.05%
same,stability (observed vs theoretical concentration),"[2]; 0.1% formic acid (pH = 2.8), C: after 5 freeze-thaw cycles",48.25 ± 2.26%
same,stability (observed vs theoretical concentration),"[2]; 0.1% formic acid (pH = 2.8), D: after 10 days at −20 °C",0.12 ± 0.07%
same,stability (observed vs theoretical concentration),"[2]; 0.35% HCl (pH = 1.2), A: immediately",103.67 ± 0.60%
same,stability (observed vs theoretical concentration),"[2]; 0.35% HCl (pH = 1.2), B: after 24 h at room temperature",104.42 ± 2.50%
same,stability (observed vs theoretical concentration),"[2]; 0.35% HCl (pH = 1.2), C: after 5 freeze-thaw cycles",103.12 ± 2.19%
same,stability (observed vs theoretical concentration),"[2]; 0.35% HCl (pH = 1.2), D: after 10 days at −20 °C",107.15 ± 0.69%
same,stability (observed vs theoretical concentration),"[2]; 1.0% formic acid (pH = 2.2), A: immediately",97.66 ± 6.58%
same,stability (observed vs theoretical concentration),"[2]; 1.0% formic acid (pH = 2.2), B: after 24 h at room temperature",100.05 ± 1.83%
same,stability (observed vs theoretical concentration),"[2]; 1.0% formic acid (pH = 2.2), C: after 5 freeze-thaw cycles",101.86 ± 1.51%
same,stability (observed vs theoretical concentration),"[2]; 1.0% formic acid (pH = 2.2), D: after 10 days at −20 °C",105.67 ± 0.59%
same,stability (observed vs theoretical concentration),"[2]; saline (pH = 5.5), A: immediately",63.47 ± 2.32%
same,stability (observed vs theoretical concentration),"[2]; saline (pH = 5.5), B: after 24 h at room temperature",0.13 ± 0.03%
same,stability (observed vs theoretical concentration),"[2]; saline (pH = 5.5), C: after 5 freeze-thaw cycles",19.01 ± 1.61%
same,stability (observed vs theoretical concentration),"[2]; saline (pH = 5.5), D: after 10 days at −20 °C",9.93 ± 1.76%
same,"Percentage over Theoretical Concentration, Long-Term Stability",[3]; 2 ng/mL,97.25 ± 4.73%
same,"Percentage over Theoretical Concentration, Freeze/Thaw Stability",[3]; 2 ng/mL,99.02 ± 3.61%
same,"Percentage over Theoretical Concentration, Autosampler Stability",[3]; 2 ng/mL,97.2 ± 4.98%
same,"Percentage over Theoretical Concentration, Short-Term Stability",[3]; 2 ng/mL,96.57 ± 2.66%
same,"Percentage over Theoretical Concentration, Long-Term Stability",[3]; 80 ng/mL,99.38 ± 0.49%
same,"Percentage over Theoretical Concentration, Freeze/Thaw Stability",[3]; 80 ng/mL,100.40 ± 0.20%
same,"Percentage over Theoretical Concentration, Autosampler Stability",[3]; 80 ng/mL,101.31 ± 2.00%
same,"Percentage over Theoretical Concentration, Short-Term Stability",[3]; 80 ng/mL,101.11 ± 1.95%
same,"Percentage over Theoretical Concentration, Long-Term Stability",[3]; 160 ng/mL,96.62 ± 1.63%
same,"Percentage over Theoretical Concentration, Freeze/Thaw Stability",[3]; 160 ng/mL,98.44 ± 0.58%
same,"Percentage over Theoretical Concentration, Autosampler Stability",[3]; 160 ng/mL,97.45 ± 0.31%
same,"Percentage over Theoretical Concentration, Short-Term Stability",[3]; 160 ng/mL,97.64 ± 2.18%
same,t1/2(β),[4],1.87 to 2.13 h
